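These data come from cells grown in 96-well plates and exposed to compound for 48 hours at five concentrations. Here, GI50 denotes the concentration required for 50% inhibition of growth.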 The source made the active and inactive calls. Rule as the data show it: active = GI50 up to about 1.1 µM and inactive = higher.
Legend:
Assay in all cases: NCI anticancer screen, dose series, 48 h
SF-295 = tested on: SF-295
DU-145 = tested on: DU-145
LOX IMVI = tested on: LOX IMVI
A498 = tested on: A498
MDA-MB-231 = tested on: MDA-MB-231
HL-60 = tested on: HL-60
NCI-H23 = tested on: NCI-H23
786-0 = tested on: 786-0
SW-620 = tested on: SW-620
TK-10 = tested on: TK-10
RPMI-8226 = tested on: RPMI-8226
SF-268 = tested on: SF-268
K562 = tested on: K562
OVCAR-8 = tested on: OVCAR-8
MDA-MB-435 = tested on: MDA-MB-435
MCF7 = tested on: MCF7
M14 = tested on: M14
U-251 = tested on: U-251
IGROV-1 = tested on: IGROV-1
SF-539 = tested on: SF-539

Compound	GI50 (SF-295)	GI50 (DU-145)	GI50 (LOX IMVI)	GI50 (A498)	GI50 (MDA-MB-231)	GI50 (HL-60)	GI50 (NCI-H23)	GI50 (786-0)	GI50 (SW-620)	GI50 (TK-10)	GI50 (RPMI-8226)	GI50 (SF-268)	GI50 (K562)	GI50 (OVCAR-8)	GI50 (MDA-MB-435)	GI50 (MCF7)	GI50 (M14)	GI50 (U-251)	GI50 (IGROV-1)	GI50 (SF-539)
CN(C)Cc1cc(O)c(O)c(CN(C)C)c1	47 µM (inactive)	35.9 µM (inactive)	36 µM (inactive)	> 100 µM (inactive)	> 100 µM (inactive)	24.8 µM (inactive)	37 µM (inactive)	31.4 µM (inactive)	64.3 µM (inactive)	37.5 µM (inactive)	35.7 µM (inactive)	35.4 µM (inactive)	33 µM (inactive)	35.2 µM (inactive)	> 100 µM (inactive)	39.6 µM (inactive)	22.7 µM (inactive)	36.6 µM (inactive)	46.3 µM (inactive)	–
COc1c2c(c3c(c1CCC(=O)O)OC(C)(C)C=C3)OC(C)(C)C=C2	> 100 µM (inactive)	> 100 µM (inactive)	> 100 µM (inactive)	> 100 µM (inactive)	> 100 µM (inactive)	50.8 µM (inactive)	> 100 µM (inactive)	> 100 µM (inactive)	> 100 µM (inactive)	> 100 µM (inactive)	48.4 µM (inactive)	> 100 µM (inactive)	55.8 µM (inactive)	> 100 µM (inactive)	28.9 µM (inactive)	> 100 µM (inactive)	> 100 µM (inactive)	> 100 µM (inactive)	> 100 µM (inactive)	–
O=C(Nc1sccc1S(=O)(=O)c1ccccc1)c1ccccc1	> 100 µM (inactive)	> 100 µM (inactive)	> 100 µM (inactive)	> 100 µM (inactive)	> 36.1 µM (inactive)	–	> 100 µM (inactive)	> 100 µM (inactive)	> 84.3 µM (inactive)	> 100 µM (inactive)	> 100 µM (inactive)	> 100 µM (inactive)	1.91 µM (inactive)	> 100 µM (inactive)	3.69 µM (inactive)	> 100 µM (inactive)	> 100 µM (inactive)	> 100 µM (inactive)	> 100 µM (inactive)	> 100 µM (inactive)
Cc1oc2nc(N(C)C)n3c(C)nnc3c2c1C	> 100 µM (inactive)	> 100 µM (inactive)	> 100 µM (inactive)	> 100 µM (inactive)	> 100 µM (inactive)	–	> 100 µM (inactive)	> 100 µM (inactive)	> 100 µM (inactive)	> 100 µM (inactive)	> 100 µM (inactive)	> 100 µM (inactive)	> 100 µM (inactive)	> 100 µM (inactive)	> 100 µM (inactive)	> 100 µM (inactive)	> 100 µM (inactive)	> 100 µM (inactive)	> 100 µM (inactive)	> 100 µM (inactive)
CCOC(=O)C1=CC(C)(C(=O)OCC)Nc2c(nc(OC)n(C)c2=O)N1 (stereo not given)	> 10 µM (inactive)	> 10 µM (inactive)	> 10 µM (inactive)	> 10 µM (inactive)	> 10 µM (inactive)	–	> 10 µM (inactive)	> 10 µM (inactive)	> 10 µM (inactive)	> 10 µM (inactive)	> 10 µM (inactive)	> 10 µM (inactive)	> 10 µM (inactive)	> 10 µM (inactive)	> 10 µM (inactive)	> 10 µM (inactive)	> 10 µM (inactive)	> 10 µM (inactive)	> 10 µM (inactive)	> 10 µM (inactive)
O=C1c2ccccc2-n2c1nc1cc(Cl)ccc1c2=O	50.7 µM (inactive)	24.1 µM (inactive)	14 µM (inactive)	> 100 µM (inactive)	> 100 µM (inactive)	–	11.8 µM (inactive)	89.7 µM (inactive)	–	> 100 µM (inactive)	5.04 µM (inactive)	61.9 µM (inactive)	4.05 µM (inactive)	36.8 µM (inactive)	2.02 µM (inactive)	> 100 µM (inactive)	15.8 µM (inactive)	51.4 µM (inactive)	33.3 µM (inactive)	> 100 µM (inactive)
CC1=NN(c2ccccc2Cl)C2(C1)C(Cl)C(=O)N2c1nc2ccccc2s1 (stereo not given)	61.8 µM (inactive)	47.2 µM (inactive)	15.5 µM (inactive)	> 100 µM (inactive)	46.6 µM (inactive)	25.5 µM (inactive)	48.4 µM (inactive)	31.8 µM (inactive)	63.4 µM (inactive)	> 100 µM (inactive)	21.7 µM (inactive)	64.9 µM (inactive)	37.5 µM (inactive)	38.1 µM (inactive)	41.8 µM (inactive)	44.8 µM (inactive)	52.4 µM (inactive)	28.6 µM (inactive)	42.1 µM (inactive)	–
C=C1CN(Cc2ccccc2)[C@@H]2CCCCC[C@H](C#N)[C@H]12	> 21.2 µM (inactive)	> 100 µM (inactive)	95.9 µM (inactive)	> 100 µM (inactive)	> 100 µM (inactive)	–	> 93.1 µM (inactive)	> 100 µM (inactive)	> 94.8 µM (inactive)	> 100 µM (inactive)	22.5 µM (inactive)	> 100 µM (inactive)	47.2 µM (inactive)	> 68.4 µM (inactive)	> 76 µM (inactive)	> 100 µM (inactive)	> 100 µM (inactive)	> 94 µM (inactive)	> 100 µM (inactive)	> 100 µM (inactive)
O=S(=O)(O)c1ccc(O)c2ncc(Cl)cc12	> 100 µM (inactive)	> 100 µM (inactive)	> 100 µM (inactive)	> 100 µM (inactive)	> 100 µM (inactive)	–	> 100 µM (inactive)	> 100 µM (inactive)	> 100 µM (inactive)	–	51.1 µM (inactive)	–	> 100 µM (inactive)	> 100 µM (inactive)	> 100 µM (inactive)	> 100 µM (inactive)	> 100 µM (inactive)	> 100 µM (inactive)	> 100 µM (inactive)	> 100 µM (inactive)
O=c1[nH][nH]c(=O)c2c1ccc1oc3ccccc3c12	> 100 µM (inactive)	> 100 µM (inactive)	–	> 100 µM (inactive)	> 100 µM (inactive)	> 100 µM (inactive)	> 100 µM (inactive)	> 100 µM (inactive)	> 100 µM (inactive)	> 100 µM (inactive)	> 100 µM (inactive)	> 100 µM (inactive)	> 100 µM (inactive)	> 100 µM (inactive)	> 100 µM (inactive)	> 100 µM (inactive)	> 100 µM (inactive)	> 100 µM (inactive)	> 100 µM (inactive)	> 100 µM (inactive)
CCOC(=O)/C=C(/C)Nc1nc2c(c(C(=O)OC)c1C#N)CCCC2	> 100 µM (inactive)	> 100 µM (inactive)	> 100 µM (inactive)	> 100 µM (inactive)	> 100 µM (inactive)	69.3 µM (inactive)	> 100 µM (inactive)	> 100 µM (inactive)	> 100 µM (inactive)	> 100 µM (inactive)	> 100 µM (inactive)	> 100 µM (inactive)	> 100 µM (inactive)	> 100 µM (inactive)	> 100 µM (inactive)	> 100 µM (inactive)	> 100 µM (inactive)	> 100 µM (inactive)	> 100 µM (inactive)	–
COC1(OC)N=C(N)C2(C#N)C(c3ccccc3)NC3=C(CCC3)C12C#N (stereo not given)	> 100 µM (inactive)	> 100 µM (inactive)	> 100 µM (inactive)	> 100 µM (inactive)	> 100 µM (inactive)	> 100 µM (inactive)	> 100 µM (inactive)	> 100 µM (inactive)	> 100 µM (inactive)	> 100 µM (inactive)	> 100 µM (inactive)	> 100 µM (inactive)	–	> 100 µM (inactive)	> 100 µM (inactive)	> 100 µM (inactive)	> 100 µM (inactive)	> 100 µM (inactive)	> 100 µM (inactive)	–
CC1C2CC(C(S(=O)(=O)O)C2=O)C1(C)C (stereo not given)	> 100 µM (inactive)	> 100 µM (inactive)	–	> 100 µM (inactive)	> 100 µM (inactive)	> 100 µM (inactive)	> 100 µM (inactive)	> 100 µM (inactive)	> 100 µM (inactive)	> 100 µM (inactive)	–	> 100 µM (inactive)	> 100 µM (inactive)	> 100 µM (inactive)	> 100 µM (inactive)	> 100 µM (inactive)	> 100 µM (inactive)	> 100 µM (inactive)	> 100 µM (inactive)	> 100 µM (inactive)
CN(C)c1ccc(/C=N/NC(=S)Nc2ccccc2)cc1	> 100 µM (inactive)	> 100 µM (inactive)	> 100 µM (inactive)	> 100 µM (inactive)	> 100 µM (inactive)	–	> 100 µM (inactive)	> 100 µM (inactive)	> 100 µM (inactive)	> 100 µM (inactive)	> 100 µM (inactive)	> 100 µM (inactive)	> 100 µM (inactive)	> 100 µM (inactive)	> 100 µM (inactive)	> 100 µM (inactive)	> 100 µM (inactive)	> 100 µM (inactive)	> 100 µM (inactive)	> 100 µM (inactive)
Nc1ccc(-c2nc3ccc(F)cc3s2)cc1I	> 71 µM (inactive)	> 100 µM (inactive)	> 100 µM (inactive)	> 100 µM (inactive)	> 54.2 µM (inactive)	–	> 100 µM (inactive)	40.4 µM (inactive)	> 100 µM (inactive)	< 0.01 µM (active)	> 100 µM (inactive)	> 63.8 µM (inactive)	> 100 µM (inactive)	> 79.4 µM (inactive)	> 100 µM (inactive)	< 0.01 µM (active)	> 100 µM (inactive)	> 90.8 µM (inactive)	< 0.01 µM (active)	5.9 µM (inactive)

Reference: ChEMBL document CHEMBL1201862, “PubChem BioAssay data set” (2004)
